Test results published in US20230096766A1, “AMINO ACID HAVING FUNCTIONAL GROUP CAPABLE OF INTERMOLECULAR HYDROGEN BONDING, PEPTIDE COMPOUND CONTAINING SAME AND METHOD FOR PRODUCTION THEREOF” (Chugai Seiyaku Kabushiki Kaisha, priority 2018, published 2023).
*1 amine or outer side, *2 acyl side, *3 side chain or, on linkers, in order; H or OH if unused. Where a SMILES comes first, the peptide text is derived from it. Bridges are numbered along the chain shown (N, C = ends). [ ]: non-standard residue; d: D form. The star is where a group is joined. NMePhe(3-Cl) = CN[C@@H](Cc1cccc(Cl)c1)C(=O)O; X12 = O=C([C@H](CCCC(O)C(F)(F)F)N[*:1])[*:2]; NMeW = CN[C@@H](Cc1c[nH]c2ccccc12)C(=O)O; NMehPhe = CN[C@@H](CCc1ccccc1)C(=O)O; X6 = O=C([C@H](CCCCO)N[*:1])[*:2]; NMeF = CN[C@@H](Cc1ccccc1)C(=O)O; NMeGABA = CN(CCCC(=O)[*:2])[*:1]; NMeI = CC[C@H](C)[C@H](NC)C(=O)O; CH2CH(OH)CF3 = OC(C*)C(F)(F)F; NMeL = CN[C@@H](CC(C)C)C(=O)O; Butyl(3R-OH) = C[C@@H](O)CC*; NMeV = CN[C@H](C(=O)O)C(C)C; NMeAbu = CC[C@H](NC)C(=O)O; NMeA = CN[C@@H](C)C(=O)O; Piperidide = C1CCN(*)CC1; CH2CMe2OH = CC(C)(O)C*; NBuGly = CCCCNCC(=O)O; NPrGly = CCCNCC(=O)O; X3 = C[C@H](O)C*; Sar = CNCC(=O)O; tBu = CC(C)(C)*

Experiment: in vitro
Conditions: human, Caco-2, Caco-2 (cm/sec)

**Q.** Which Papp does the source give for `CC(C)C[C@H]1C(=O)N[C@@H]([C@@H](C)O)C(=O)N(C)[C@@H](CC(C)C)C(=O)N(C)[C@@H](CC(C)C)C(=O)N[C@H](C(=O)N2CCCCC2)CC(=O)N(C)CCCC(=O)N(C)[C@@H](C(C)C)C(=O)N[C@@H](COCC[C@@H](C)O)C(=O)N(C)[C@@H](Cc2ccccc2)C(=O)N(C)[C@@H](Cc2cccc(Cl)c2)C(=O)N[C@@H](COC(C)(C)C)C(=O)N1C` [AP110] ([NMeGABA][NMeV]S(Butyl(3R-OH))[NMeF][NMePhe(3-Cl)]S(tBu)[NMeL]T[NMeL][NMeL]D-Piperidide; lactam N-11) here?
**A.** 0.23 ×10⁻⁶ cm/s

**Q.** With `CCCN1CC(=O)N(C)[C@@H](Cc2ccccc2)C(=O)N[C@@H]([C@@H](C)CC)C(=O)N(C)[C@@H](CC(C)C)C(=O)N[C@@H]([C@@H](C)O)C(=O)N(CCC)CC(=O)N(C)[C@@H](Cc2ccccc2)C(=O)N(C)[C@@H](CC(C)C)C(=O)N[C@@H](COCC(C)(C)O)C(=O)N(C)[C@@H](C(C)C)C(=O)N[C@H](C(=O)N2CCCCC2)CC1=O` [AP09] ([NPrGly][NMeF]I[NMeL]T[NPrGly][NMeF][NMeL]S(CH2CMe2OH)[NMeV]D-Piperidide; lactam N-11) as the molecule, how does the Papp read?
**A.** 1.1 ×10⁻⁶ cm/s

**Q.** With `CC[C@H](C)[C@@H]1NC(=O)[C@H](CC(C)C)N(C)C(=O)CCCN(C)C(=O)C[C@@H](C(=O)N2CCCCC2)NC(=O)[C@H](CC(C)C)N(C)C(=O)[C@H](CC(C)C)N(C)C(=O)[C@H]([C@@H](C)O)NC(=O)[C@H](CC(C)C)N(C)C(=O)[C@H](COC(C)(C)C)NC(=O)[C@H](Cc2c[nH]c3ccccc23)N(C)C(=O)[C@H](Cc2ccccc2)N(C)C1=O` [pd107] ([NMeGABA][NMeL]I[NMeF][NMeW]S(tBu)[NMeL]T[NMeL][NMeL]D-Piperidide; lactam N-11) as the molecule, how does the Papp read?
**A.** 0.17 ×10⁻⁶ cm/s

**Q.** Which Papp does the source give for `CCCN1CC(=O)N(C)[C@@H](CC(C)C)C(=O)N[C@@H](COC[C@H](C)O)C(=O)N(C)[C@@H](Cc2cccc(Cl)c2)C(=O)N(C)[C@@H](C(C)C)C(=O)N[C@H](C(=O)N2CCCCC2)CC(=O)N[C@H](C(C)C)C(=O)N(C)[C@@H](Cc2ccccc2)C(=O)N[C@@H](CC(C)C)C(=O)N(C)[C@@H](CC(C)C)C(=O)N[C@@H]([C@@H](C)O)C1=O` [AP70] ([dV][NMeF]L[NMeL]T[NPrGly][NMeL]S(X3)[NMePhe(3-Cl)][NMeV]D-Piperidide; lactam N-11) here?
**A.** 0.75 ×10⁻⁶ cm/s

**Q.** With `CC[C@H]1C(=O)N[C@@H](CC(C)C)C(=O)N(C)[C@@H](CC(C)C)C(=O)N(C)[C@@H](Cc2ccccc2)C(=O)N[C@@H](CCCCO)C(=O)N(C)[C@@H](CCc2ccccc2)C(=O)N(C)[C@@H](CC(C)C)C(=O)N[C@@H]([C@@H](C)O)C(=O)N(C)CC(=O)N(C)[C@@H](CC(C)C)C(=O)N[C@H](C(=O)N2CCCCC2)CC(=O)N1C` [Compound B06] ([NMeAbu]L[NMeL][NMeF][X6][NMehPhe][NMeL]T[Sar][NMeL]D-Piperidide; lactam N-11) as the molecule, how does the Papp read?
**A.** 0.39 ×10⁻⁶ cm/s

Same assay, conditions: human, Caco-2, Caco-2 (membrane permeability)

**Q.** For `CC[C@H]1C(=O)N[C@@H](COC(C)(C)C)C(=O)N(C)[C@@H](Cc2ccccc2)C(=O)N(C)[C@@H](CC(C)C)C(=O)N[C@H](C(=O)N2CCCCC2)CC(=O)N[C@H](CC(C)C)C(=O)N(C)[C@@H](Cc2ccccc2)C(=O)N[C@@H](CC(C)C)C(=O)N(C)[C@@H](CC)C(=O)N[C@@H](CCCC(O)C(F)(F)F)C(=O)N(C)CC(=O)N1C` (stereo partly drawn) [Compound D10] ([dL][NMeF]L[NMeAbu][X12][Sar][NMeAbu]S(tBu)[NMeF][NMeL]D-Piperidide; lactam N-11), which Papp is on record?
**A.** 0.81 ×10⁻⁶ cm/s

**Q.** With `CC[C@H](C)[C@H]1C(=O)N[C@@H]([C@@H](C)O)C(=O)N(C)CC(=O)N(C)[C@@H](CC(C)C)C(=O)N[C@H](C(=O)N2CCCCC2)CC(=O)N(C)[C@@H](C(C)C)C(=O)N[C@@H](CCCC(O)C(F)(F)F)C(=O)N(C)[C@@H](CC(C)C)C(=O)N(C)[C@@H](Cc2ccccc2)C(=O)N[C@@H](CC(C)C)C(=O)N(C)[C@@H](Cc2ccccc2)C(=O)N1C` (stereo partly drawn) [Compound D08] ([NMeV][X12][NMeL][NMeF]L[NMeF][NMeI]T[Sar][NMeL]D-Piperidide; lactam N-11) as the molecule, how does the Papp read?
**A.** 0.53 ×10⁻⁶ cm/s

**Q.** Which Papp does the source give for `CCCCN1CC(=O)N(C)[C@@H](Cc2ccccc2)C(=O)N(C)[C@@H](CC(C)C)C(=O)N[C@@H](COC(C)(C)C)C(=O)N(C)[C@@H](CC(C)C)C(=O)N[C@H](C(=O)N2CCCCC2)CC(=O)N(C)CC(=O)N(C)[C@@H](Cc2ccccc2)C(=O)N[C@@H](C(C)C)C(=O)N(C)[C@@H](CC)C(=O)N[C@@H](COCC(O)C(F)(F)F)C1=O` (stereo partly drawn) [Compound C16] ([Sar][NMeF]V[NMeAbu]S(CH2CH(OH)CF3)[NBuGly][NMeF][NMeL]S(tBu)[NMeL]D-Piperidide; lactam N-11) here?
**A.** 0.41 ×10⁻⁶ cm/s

**Q.** For `CC[C@H](C)[C@H]1C(=O)N[C@@H](C(C)C)C(=O)N(C)CC(=O)N(C)[C@@H](CC(C)C)C(=O)N[C@H](C(=O)N2CCCCC2)CC(=O)N(C)[C@@H](C)C(=O)N[C@@H](COCC(O)C(F)(F)F)C(=O)N(C)[C@@H](CC(C)C)C(=O)N(C)[C@@H](Cc2ccccc2)C(=O)N[C@@H](CC(C)C)C(=O)N(C)[C@@H](Cc2ccccc2)C(=O)N1C` (stereo partly drawn) [Compound C15] ([NMeA]S(CH2CH(OH)CF3)[NMeL][NMeF]L[NMeF][NMeI]V[Sar][NMeL]D-Piperidide; lactam N-11), which Papp is on record?
**A.** 0.83 ×10⁻⁶ cm/s

**Q.** Which Papp does the source give for `CCCCN1CC(=O)N(C)[C@@H](Cc2ccccc2)C(=O)N(C)[C@@H](CC(C)C)C(=O)N[C@@H](COC(C)(C)C)C(=O)N(C)[C@@H](CC(C)C)C(=O)N[C@H](C(=O)N2CCCCC2)CC(=O)N(C)CC(=O)N(C)[C@@H](Cc2cccc(Cl)c2)C(=O)N[C@@H](CCCC(O)C(F)(F)F)C(=O)N(C)[C@@H](CC(C)C)C(=O)N[C@@H]([C@@H](C)O)C1=O` (stereo partly drawn) [Compound D06] ([Sar][NMePhe(3-Cl)][X12][NMeL]T[NBuGly][NMeF][NMeL]S(tBu)[NMeL]D-Piperidide; lactam N-11) here?
**A.** 0.23 ×10⁻⁶ cm/s
